The first assay has as its target FXR (Homo sapiens (Human), UniProt Q96RI1). Kind of assay: transient human FXR/Gal4-luciferase reporter assay.
Conditions: not given
The format is cell-based. In outline:
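HEK293 cells stably carrying a 5×Gal4 response element–firefly luciferase reporter were transiently transfected overnight with a Gal4 DBD–human FXR LBD fusion plasmid. Compound was added in DMSO and cells were incubated overnight at 37 °C, 5% CO2. Activity was read as Steady-Glo luminescence.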
FXR, sequence (Q96RI1 262-486): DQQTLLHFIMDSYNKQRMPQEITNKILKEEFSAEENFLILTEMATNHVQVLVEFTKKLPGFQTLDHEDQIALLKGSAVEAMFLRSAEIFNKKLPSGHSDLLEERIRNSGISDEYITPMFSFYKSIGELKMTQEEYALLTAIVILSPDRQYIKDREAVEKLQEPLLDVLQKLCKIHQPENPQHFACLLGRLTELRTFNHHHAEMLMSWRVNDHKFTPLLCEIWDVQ
Turning to `O=C(C1CC(F)(F)C1)N(CC12CCC(c3nc(C4CC4)no3)(CC1)CC2)c1cccc(-c2nc3cc(F)ccc3o2)c1` [Example 560, N-((4-(3-cyclopropyl-1,2,4-oxadiazol-5-yl)bicyclo[2.2.2]octan-1-yl)methyl)-3,3-difluoro-N-(3-(5-fluorobenzo[d]oxazol-2-yl)phenyl)cyclobutane-1-carboxamide], the EC50 – broadly, the concentration at which the effect is half-maximal – amounted to 1510 nM. Still for that read-out and setting: the result for `CC(C)(O)c1ccc(-c2cccc(N(CC34CCC(c5noc(C(C)(C)F)n5)(CC3)CC4)C(=O)NCCN3CCOCC3)c2)cc1` [Example 649, 1-((4-(5-(2-fluoropropan-2-yl)-1,2,4-oxadiazol-3-yl)bicyclo[2.2.2]octan-1-yl)methyl)-1-(4′-(2-hydroxypropan-2-yl)-[1,1′-biphenyl]-3-yl)-3-(2-morpholinoethyl)urea] reads 600 nM.

The assay is the same for the next values; noted with them: Gal4-hFXR fusion construct, HEK293 reporter cells; response relative to 8 μM GW-4064.
With `O=C(N(CC12CCC(c3nc(C(F)F)no3)(CC1)CC2)c1cccc(-c2cnc(C3CC3)nc2)c1)C12CC(F)(C1)C2` [Example 466, N-(3-(2-cyclopropylpyrimidin-5-yl)phenyl)-N-((4-(3-(difluoromethyl)-1,2,4-oxadiazol-5-yl)bicyclo[2.2.2]octan-1-yl)methyl)-3-fluorobicyclo[1.1.1]pentane-1-carboxamide], the EC50 was 349 nM. Same read-out and setting: as for `COc1ccc(-c2cccc(N(CC34CCC(c5cnc(C(F)(F)F)nc5)(CC3)OC4)C(=O)C34CC(F)(C3)C4)c2)cc1` [Example 420, 3-fluoro-N-(4′-methoxy-[1,1′-biphenyl]-3-yl)-N-((1-(2-(trifluoromethyl)pyrimidin-5-yl)-2-oxabicyclo[2.2.2]octan-4-yl)methyl)bicyclo[1.1.1]pentane-1-carboxamide], the figure is 802 nM; as for `CC(C)c1noc(C23CCC(CN(C(=O)C45CC(F)(C4)C5)c4cccc(-c5ccc(NS(=O)(=O)C(F)(F)F)cc5)c4)(CC2)CC3)n1` [Example 390, 3-fluoro-N-((4-(3-isopropyl-1,2,4-oxadiazol-5-yl)bicyclo[2.2.2]octan-1-yl)methyl)-N-(4′-((trifluoromethyl)sulfonamido)-[1,1′-biphenyl]-3-yl)bicyclo[1.1.1]pentane-1-carboxamide], 96 nM; as for `CCOc1ncc(-c2cccc(N(CC34CCC(c5ncc(OC)cn5)(CC3)CC4)C(=O)C34CC(F)(C3)C4)c2)cn1` [Example 552, N-(3-(2-ethoxypyrimidin-5-yl)phenyl)-3-fluoro-N-((4-(5-methoxypyrimidin-2-yl)bicyclo[2.2.2]octan-1-yl)methyl)bicyclo[1.1.1]pentane-1-carboxamide], 359 nM. The same measure, in the same setting: as for `Cn1ncc2cc(C#N)c(-c3cccc(N(CC45CCC(c6nc(C7CC7)no6)(CC4)CC5)C(=O)C45CC(F)(C4)C5)c3)nc21` [Example 313, N-(3-(5-cyano-1-methyl-1H-pyrazolo[3,4-b]pyridin-6-yl)phenyl)-N-((4-(3-cyclopropyl-1,2,4-oxadiazol-5-yl)bicyclo[2.2.2]octan-1-yl)methyl)-3-fluorobicyclo[1.1.1]pentane-1-carboxamide], the figure is 194 nM; as for `CC(C)(C)c1nc(C23CCC(CN(C(=O)C45CC(F)(C4)C5)c4cccc(-c5cnc(C6CC6)nc5)c4)(CC2)CC3)no1` [Example 442, N-((4-(5-(tert-butyl)-1,2,4-oxadiazol-3-yl)bicyclo[2.2.2]octan-1-yl)methyl)-N-(3-(2-cyclopropylpyrimidin-5-yl)phenyl)-3-fluorobicyclo[1.1.1]pentane-1-carboxamide], 71 nM. Still for that read-out and setting: the result for `CCOc1ncc(-c2cc(N(CC34CCC(c5noc(C(C)(C)C)n5)(CC3)CC4)C(=O)C34CC(F)(C3)C4)ccn2)cn1` [Example 596, N-((4-(5-(tert-butyl)-1,2,4-oxadiazol-3-yl)bicyclo[2.2.2]octan-1-yl)methyl)-N-(2-(2-ethoxypyrimidin-5-yl)pyridin-4-yl)-3-fluorobicyclo[1.1.1]pentane-1-carboxamide] reads 321 nM. As for `O=C(N(CC12CCC(c3nc(C4CC4)no3)(CC1)CC2)c1cccc(-c2cccc(C(F)(F)F)c2)c1)C12CC(F)(C1)C2` [Example 252, N-((4-(3-cyclopropyl-1,2,4-oxadiazol-5-yl)bicyclo[2.2.2]octan-1-yl)methyl)-3-fluoro-N-(3′-(trifluoromethyl)-[1,1′-biphenyl]-3-yl)bicyclo[1.1.1]pentane-1-carboxamide], the concentration giving a half-maximal response (EC50) stood at 833 nM.

As for `COc1cc(-c2cccc(N(CC34CCC(c5nc(C6CC6)no5)(CC3)CC4)C(=O)C34CC(F)(C3)C4)c2)cn2ncnc12` [Example 264, N-((4-(3-cyclopropyl-1,2,4-oxadiazol-5-yl)bicyclo[2.2.2]octan-1-yl)methyl)-3-fluoro-N-(3-(8-methoxy-[1,2,4]triazolo[1,5-a]pyridin-6-yl)phenyl)bicyclo[1.1.1]pentane-1-carboxamide], the midpoint of the response, the EC50, lay at 1500 nM. Still for that read-out and setting: as for `CC(C)Oc1ccc(-c2ccnc(N(CC34CCC(c5cc(C(C)(F)F)nn5C)(CC3)CC4)C(=O)OC(C)(C)C(F)(F)F)c2)cc1` [Example 657, 1,1,1-trifluoro-2-methylpropan-2-yl ((4-(3-(1,1-difluoroethyl)-1-methyl-1H-pyrazol-5-yl)bicyclo[2.2.2]octan-1-yl)methyl)(4-(4-isopropoxyphenyl)pyridin-2-yl)carbamate], the figure is 67 nM. Compound `O=C(C1CC(O)(C(F)(F)F)C1)N(CC12CCC(c3noc(-c4ccc(F)cc4)n3)(CC1)CC2)c1cccc(-c2ccc(OC(F)F)cc2)c1` (stereo not drawn) [Example 639, (cis)-N-(4′-(difluoromethoxy)-[1,1′-biphenyl]-3-yl)-N-((4-(5-(4-fluorophenyl)-1,2,4-oxadiazol-3-yl)bicyclo[2.2.2]octan-1-yl)methyl)-3-hydroxy-3-(trifluoromethyl)cyclobutane-1-carboxamide] had a concentration giving a half-maximal response (EC50) of 221 nM. In turn, `CS(=O)(=O)Nc1ccc(-c2cncc(N(CC34CCC(c5nc(C6CC6)no5)(CC3)CC4)C(=O)C34CC(F)(C3)C4)c2)cc1` [Example 427] returned an EC50 of 671 nM. On the same count and under the same terms, as for `COc1cc(-c2cccc(N(CC34CCC(c5ccnc(C)c5)(CC3)CC4)C(=O)C3CC(F)(F)C3)c2)ccn1` [Example 237, 3,3-Difluoro-N-(3-(2-methoxypyridin-4-yl)phenyl)-N-((4-(2-methylpyridin-4-yl)bicyclo[2.2.2]octan-1-yl)methyl)cyclobutane-1-carboxamide], the figure is 541 nM; as for `CC(C)(C)c1nc(C23CCC(CN(C(=O)C45CC(F)(C4)C5)c4ccnc(-c5cnc(C6CC6)nc5)c4)(CC2)CC3)no1` [Example 597, N-((4-(5-(tert-butyl)-1,2,4-oxadiazol-3-yl)bicyclo[2.2.2]octan-1-yl)methyl)-N-(2-(2-cyclopropylpyrimidin-5-yl)pyridin-4-yl)-3-fluorobicyclo[1.1.1]pentane-1-carboxamide], 226 nM. The same measure, in the same setting: the result for `O=C(N(CC12CCC(c3nc(C4CC4)no3)(CC1)CC2)c1cccc(-c2cc(Cl)cc(Cl)c2)c1)C12CC(F)(C1)C2` [Example 250, N-((4-(3-cyclopropyl-1,2,4-oxadiazol-5-yl)bicyclo[2.2.2]octan-1-yl)methyl)-N-(3′,5′-dichloro-[1,1′-biphenyl]-3-yl)-3-fluorobicyclo[1.1.1]pentane-1-carboxamide] reads 778 nM.

For the origin of these results see patent US11254663B2 (BRISTOL-MYERS SQUIBB COMPANY, priority 2019, dated 2022).
